Measurements reported in publication PMC11856108, “Capsaicin (But Not Other Vanillins) Enhances Estrogen Binding to Its Receptor: Implications for Power Sports and Cancers” (Life, 2025).
“Also recorded” adds a separate entry of the source. Like-named read-outs stand apart in the source and are kept apart here.

Key:
[1] = system: Mice; parameters: method as in doi:10.32604/biocell.2023.028222; details: cited from earlier work
[2] = system: insulin receptor (IR); experiment: Effect on INS binding to its receptor by ultraviolet spectroscopy; details: INS 1 µM with CAP 0.1-100 µM, or CAP 25 µM with INS 10 nM-10 µM
Protocol: (§1) [17, 19, 20, 21, 22, 23]. […] Because CAP binds to INS, it was possible that it might antagonize INS binding to its receptor. […] Two types of ultraviolet spectroscopy experiments were performed. In one, INS (1 µM) and the IR were kept constant and the concentration of CAP increased from 0.1 µM to 100 µM. In the other, the CAP (25 µM) and IR were kept constant and the concentration of INS increased from 10 nM to 10 µM. In neither experiment was any significant change in the INS binding curve observed.

[3] = system: Mice: TRPV1+ vs. TRPV1-; parameters: method as in PMID 32400193; details: cited from earlier work
[4] = target: insulin receptor (IR) (Homo sapiens, UniProt P06213); experiment: Binding to the insulin receptor by ultraviolet spectroscopy; details: UV spectroscopy
Protocol: (§2) UV spectroscopy in a crystal plate was used to investigate whether CAP has specificity for estrogen alone or whether it can bind to other naturally occurring hormones. To start, CAP was dissolved in a 1:1 solution of water to ethanol at 1 mg/mL ( 3.27×10^−3 M ) and then diluted by thirds eight times. Next, the hormones were dissolved in a 1:1 solution of water to ethanol at a 1/100 dilution. An amount of 50 μL of each CAP dilution was added to 3 wells of a crystal plate, with one well serving as the control, with another 50 μL of 1:1 water to ethanol added, and the other two serving as experimental duplicates, with 50 μL of the prepared hormone solution added. Then, two additional wells were prepared to serve as controls: one containing 100 μL of 1:1 water to ethanol and the other containing 50 μL of prepared hormone solution and 50 μL of 1:1 water to ethanol. Finally, the plate was incubated for 1 h and read in a Spectramax UV-VIS scanning spectrophotometer, spanning wavelengths from 190 to 400 nm. Data analysis involved the subtraction of observed absorbance values from expected absorbance values generated from the control wells ([CAP + 1:1 solution] + [hormone + 1:1 solution] − [1:1 solution]) and plotting them as a function of CAP concentration. Because the solvent (1:1 solution of water–ethanol) was used as a control and subtracted from all wells, the resulting data reflected only the absorbances of the solute compounds. Since each compound has a different lambda maximal absorbance, analysis of the resulting data required finding one common wavelength at which the additions and subtractions of the spectra could be carried out and at which the absorbance of each compound was maximized.
as §1
CAP did bind to the ESR1 with what appears to be a high affinity (Kd = 0.9 µM) and a lower affinity (Kd = 10 µM) site. […] Other vanilloid compounds also bound to the ESR1 but with lower affinity than CAP (Figure 6). None bound to the IR.

[5] = system: T1DM rats; parameters: method as in PMID 28230360; details: cited from earlier work
[6] = target: insulin (human recombinant) (Homo sapiens, UniProt P01308); experiment: Binding to insulin by ultraviolet spectroscopy; details: UV spectroscopy
[7] = parameters: method as in PMID 26247812; details: DPPC mem-brane model; cited from earlier work
[8] = system: Human (male); parameters: method as in PMID 17615999; details: cited from earlier work
[9] = target: T1, Estrogen receptor alpha (ER alpha) recombinant protein (ESR1) (Homo sapiens, UniProt P03372); experiment: Binding to the estrogen receptor by ultraviolet spectroscopy
T1 sequence (P03372 1-595): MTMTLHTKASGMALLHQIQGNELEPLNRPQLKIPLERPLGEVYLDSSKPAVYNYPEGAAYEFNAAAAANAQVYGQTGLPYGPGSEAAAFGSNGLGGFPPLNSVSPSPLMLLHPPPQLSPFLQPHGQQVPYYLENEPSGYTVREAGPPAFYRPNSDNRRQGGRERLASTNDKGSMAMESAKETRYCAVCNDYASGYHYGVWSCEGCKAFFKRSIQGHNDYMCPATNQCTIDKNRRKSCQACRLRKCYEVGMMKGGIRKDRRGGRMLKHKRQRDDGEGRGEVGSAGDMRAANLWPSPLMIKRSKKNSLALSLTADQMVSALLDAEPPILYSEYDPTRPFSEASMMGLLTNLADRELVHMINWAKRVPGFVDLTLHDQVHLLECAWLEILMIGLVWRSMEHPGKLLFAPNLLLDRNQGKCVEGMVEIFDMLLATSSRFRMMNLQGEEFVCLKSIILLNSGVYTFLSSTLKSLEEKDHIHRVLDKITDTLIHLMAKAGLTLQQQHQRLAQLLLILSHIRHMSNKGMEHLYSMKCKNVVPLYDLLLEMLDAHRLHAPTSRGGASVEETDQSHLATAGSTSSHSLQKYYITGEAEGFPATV

[10] = system: Human, Mice; parameters: method as in PMID 29772784; details: Both ***; cited from earlier work
[11] = system: Rats (female); parameters: method as in PMID 29294454; details: cited from earlier work
[12] = Binding to steroid hormone by UV spectroscopy
Protocol: as §2
Experiments were also performed to test whether the enhancement or antagonism observed in estradiol binding to the ESR1 might be due to vanilloid compounds binding directly to estradiol or to related steroidal hormones, perhaps protecting them from oxidation or forming a complex that prevented the estradiol binding to its receptor. No vanilloid compound bound to a measurable degree to estradiol or any other steroidal hormone tested.

[13] = target: T2, ESR1 (Homo sapiens, UniProt P03372); experiment: Competitive-binding ELISA of EST-HRP binding to the estrogen receptor; details: for shift of the estradiol (EST-HRP) binding curve: maximal shift
T2 construct: purchased Invitrogen-Thermofisher
T2 sequence (P03372 1-595): T1 sequence (P03372 1-595)

insulin (human recombinant), sequence (P01308 25-54 limits assumed): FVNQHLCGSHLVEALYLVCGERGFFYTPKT
insulin (human recombinant), sequence (P01308 90-110 limits assumed): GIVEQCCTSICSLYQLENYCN
insulin receptor (IR) (Homo sapiens, UniProt P06213), sequence (P06213 28-1382, species assumed): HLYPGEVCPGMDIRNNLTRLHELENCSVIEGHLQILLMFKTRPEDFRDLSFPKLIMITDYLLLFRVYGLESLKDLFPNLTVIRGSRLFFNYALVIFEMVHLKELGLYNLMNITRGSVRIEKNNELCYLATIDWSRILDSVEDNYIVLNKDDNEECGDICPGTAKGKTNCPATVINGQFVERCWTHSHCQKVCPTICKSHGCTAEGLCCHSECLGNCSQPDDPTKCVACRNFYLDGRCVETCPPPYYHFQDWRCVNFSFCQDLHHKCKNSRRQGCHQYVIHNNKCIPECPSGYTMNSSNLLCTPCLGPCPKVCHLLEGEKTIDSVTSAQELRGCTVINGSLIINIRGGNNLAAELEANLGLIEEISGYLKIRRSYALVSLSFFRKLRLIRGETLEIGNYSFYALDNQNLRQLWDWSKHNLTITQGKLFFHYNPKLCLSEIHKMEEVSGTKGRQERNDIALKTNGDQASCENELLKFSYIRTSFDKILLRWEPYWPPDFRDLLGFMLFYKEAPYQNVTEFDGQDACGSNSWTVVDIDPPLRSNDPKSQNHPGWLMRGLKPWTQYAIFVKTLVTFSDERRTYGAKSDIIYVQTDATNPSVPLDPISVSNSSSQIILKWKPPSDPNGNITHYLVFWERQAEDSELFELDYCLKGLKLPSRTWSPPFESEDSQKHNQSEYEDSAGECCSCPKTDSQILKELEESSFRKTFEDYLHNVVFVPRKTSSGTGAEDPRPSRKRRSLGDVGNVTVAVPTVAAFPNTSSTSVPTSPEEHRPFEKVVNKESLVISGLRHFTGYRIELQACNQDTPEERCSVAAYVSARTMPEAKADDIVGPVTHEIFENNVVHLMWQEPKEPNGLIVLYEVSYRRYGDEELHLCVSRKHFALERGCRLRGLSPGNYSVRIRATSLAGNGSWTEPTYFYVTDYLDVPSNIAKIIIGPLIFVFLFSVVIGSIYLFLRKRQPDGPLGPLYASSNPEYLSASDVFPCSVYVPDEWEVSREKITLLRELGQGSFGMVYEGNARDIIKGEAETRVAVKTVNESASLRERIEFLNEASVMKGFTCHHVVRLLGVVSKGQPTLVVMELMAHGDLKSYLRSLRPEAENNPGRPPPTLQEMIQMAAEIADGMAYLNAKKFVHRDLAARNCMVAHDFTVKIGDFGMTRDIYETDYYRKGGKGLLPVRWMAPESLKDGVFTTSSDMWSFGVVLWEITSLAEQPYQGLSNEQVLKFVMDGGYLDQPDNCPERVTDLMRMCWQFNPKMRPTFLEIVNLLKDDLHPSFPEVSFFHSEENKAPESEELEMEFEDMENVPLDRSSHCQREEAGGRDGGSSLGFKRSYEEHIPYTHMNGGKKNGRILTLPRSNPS

- effect on INS binding to its receptor [2]: no observable effect
- binding to the insulin receptor (in words) ([4]; listed as capsaicin): not the insulin receptor
- Kd ([6]; Binding (Kd) Insulin, Table 1): 4 µM
- binding to insulin (in words) [6]: bound to insulin
- Kd ([6]; binding constant to INS): ~4 µM
- Kd [9]: 0.9 µM
- binding to the estrogen receptor (in words) ([9]; UV spectroscopy): bound to the estrogen receptor
- binding to the estrogen receptor (in words) ([9]; UV spectroscopy, listed as CAP): bind directly to the estrogen receptor
- Kd ([9]; read-out: Kd, ESR1 lower affinity site, UV spectroscopy): 10 µM
- Binding (Kd) 4-Androstene-3,17-dione [12]: No binding
- Binding (Kd) 5-Pregnan-3β-OL-2O-one [12]: No binding
- Binding (Kd) Estradiol [12]: No binding
- Binding (Kd) Estriol [12]: No binding
- Binding (Kd) Progesterone [12]: No binding
- Binding (Kd) Estradiol ([12]; listed as capsaicin): did not bind directly to estradiol
- shift of the estradiol (EST-HRP) binding curve [13]: approximately a half of a log unit
- shift of the estradiol (EST-HRP) binding curve ([13]; listed as CAP): half-log leftward shift
SMILES: COc1cc(CNC(=O)CCCC/C=C/C(C)C)ccc1O [Capsaicin, trans-8-methyl-N-vanillyl-6-nonenamide]
- Cancer-Related Effects [1]: >Attenuates testosterone-induced prostate growth
- effect on INS binding to its receptor ([2]; listed as CAP): does not, apparently, alter INS binding to its receptor; also recorded: did not significantly affect INS binding to its receptor
- Cancer-Related Effects [3]: >Chemoprevention
- Downregulates or Inhibits [3]: >Blocked metastatic burden >Mechanism unknown
- binding to the insulin receptor (in words) ([4]; listed as CAP): did not bind significantly to the IR except at concentrations well beyond those physiologically possible
- Capsaicin Upregulates [5]: >Serum INS (CAP 6 mg/kg)
- Downregulates or Inhibits [5]: >Fasting blood glucose levels and serum level of glycosylated protein
- Upregulates [7]: >Increases membrane fluidity
- Capsaicin Upregulates [8]: >Sympathetic modulation (adrenal catecholamine secretion) and thermogenesis
- Capsaicin Upregulates [10]: >INS sensitivity—TRPV-1 activation stimulated GLP-1 release * >Fatty acid oxidation—modulated via TRPV1 activation >INS secretion from pancreatic β-cells ***
- Downregulates or Inhibits [10]: > Inflammatory factors **
- Cancer-Related Effects [11]: >Blocks formation of nitrosomethylurea-induced mammary tumors
- Downregulates or Inhibits [11]: >Decreased antioxidant enzymes
- Upregulates [11]: >Increases estradiol, progesterone, CEA and malondialdehyde levels
- competition with estradiol for binding to ESR1 [13]: did not compete with estradiol for binding to ESR1
- effect on estradiol (EST-HRP) binding to the estrogen receptor ([13]; listed as CAP): enhanced binding of estradiol to its receptor in a concentration-dependent manner; also recorded: increases binding of estradiol to its receptor
